According to ChEMBL document CHEMBL1201862, “PubChem BioAssay data set” (2004):
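Five concentrations, 48 hours, 96-well plates. Abbreviation: GI50, concentration required for 50% inhibition of growth.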 Active and inactive are the calls of the source. No stated cut-off is given here; in the data, active = GI50 up to about 1.1 µM and inactive = higher.

Experiments:
Experiment in all cases: DTP human tumour cell line panel, 48 h
RPMI-8226 = tested on: RPMI-8226
LOX IMVI = tested on: LOX IMVI
HCC 2998 = tested on: HCC 2998
CAKI-1 = tested on: CAKI-1
T47D = tested on: T47D
786-0 = tested on: 786-0
TK-10 = tested on: TK-10
A498 = tested on: A498
HCT-15 = tested on: HCT-15
SF-268 = tested on: SF-268
SK-MEL-28 = tested on: SK-MEL-28
ACHN = tested on: ACHN
OVCAR-5 = tested on: OVCAR-5
SNB-75 = tested on: SNB-75
HOP-62 = tested on: HOP-62
IGROV-1 = tested on: IGROV-1
SR = tested on: SR
NCI-H23 = tested on: NCI-H23
SN12C = tested on: SN12C
UO-31 = tested on: UO-31
OVCAR-8 = tested on: OVCAR-8
SW-620 = tested on: SW-620
OVCAR-4 = tested on: OVCAR-4
A549 = tested on: A549
SK-MEL-5 = tested on: SK-MEL-5
U-251 = tested on: U-251
HCT-116 = tested on: HCT-116
SK-OV-3 = tested on: SK-OV-3
UACC-62 = tested on: UACC-62
K562 = tested on: K562
DU-145 = tested on: DU-145
SF-295 = tested on: SF-295
OVCAR-3 = tested on: OVCAR-3
KM12 = tested on: KM12
MDA-MB-435 = tested on: MDA-MB-435
UACC-257 = tested on: UACC-257
M14 = tested on: M14
NCI-H460 = tested on: NCI-H460
SNB-19 = tested on: SNB-19
NCI/ADR-RES = tested on: NCI/ADR-RES
NCI-H226 = tested on: NCI-H226
HT-29 = tested on: HT-29
MOLT-4 = tested on: MOLT-4
MDA-MB-231 = tested on: MDA-MB-231
Hs-578T = tested on: Hs-578T
Malme-3M = tested on: Malme-3M
SK-MEL-2 = tested on: SK-MEL-2
MDA-N = tested on: MDA-N
SF-539 = tested on: SF-539
EKVX = tested on: EKVX
PC-3 = tested on: PC-3
MCF7 = tested on: MCF7
CCRF-CEM = tested on: CCRF-CEM
COLO 205 = tested on: COLO 205
HOP-92 = tested on: HOP-92
RXF 393 = tested on: RXF 393
NCI-H522 = tested on: NCI-H522

Measured: GI50

CCCCCCCCCCCCOCC1(COCCCCCCCCCCCC)COC(c2ccc(N)cc2)OC1
inactive: RPMI-8226 > 100 µM | LOX IMVI > 100 µM | HCC 2998 > 100 µM | CAKI-1 > 100 µM | T47D > 100 µM | 786-0 > 100 µM | TK-10 > 100 µM | A498 > 100 µM | SF-268 > 100 µM | SK-MEL-28 > 100 µM | ACHN > 100 µM | OVCAR-5 > 100 µM | SNB-75 > 100 µM | HOP-62 > 100 µM | IGROV-1 > 100 µM | SR > 100 µM | NCI-H23 > 100 µM | SN12C > 100 µM | UO-31 > 100 µM | OVCAR-8 > 100 µM | SW-620 > 100 µM | OVCAR-4 > 100 µM | A549 > 100 µM | SK-MEL-5 > 100 µM | U-251 > 100 µM | HCT-116 > 100 µM | SK-OV-3 > 100 µM | UACC-62 > 100 µM | K562 > 100 µM | DU-145 > 100 µM | SF-295 > 100 µM | OVCAR-3 > 100 µM | KM12 > 100 µM | MDA-MB-435 > 100 µM | UACC-257 > 100 µM | M14 > 100 µM | NCI-H460 > 10 µM | SNB-19 > 100 µM | NCI/ADR-RES > 100 µM | NCI-H226 > 100 µM | HT-29 > 100 µM | MOLT-4 > 100 µM | MDA-MB-231 > 100 µM | Hs-578T > 100 µM | Malme-3M > 100 µM | SK-MEL-2 > 100 µM | MDA-N > 100 µM | SF-539 > 100 µM | EKVX > 100 µM | PC-3 > 100 µM | MCF7 > 100 µM
> 100 µM: HCT-15

C=CC1(c2ccc(-c3ccccc3)cc2)OCCO1
29.5 µM: HCT-15
inactive: RPMI-8226 > 100 µM | LOX IMVI 58.9 µM | HCC 2998 63.7 µM | T47D 51.2 µM | 786-0 46.8 µM | TK-10 89.1 µM | CCRF-CEM 11.9 µM | SF-268 > 100 µM | SK-MEL-28 > 100 µM | ACHN > 100 µM | OVCAR-5 64.4 µM | COLO 205 31.3 µM | HOP-92 34.8 µM | SNB-75 39.1 µM | HOP-62 > 100 µM | IGROV-1 > 100 µM | SR 45.9 µM | NCI-H23 34.7 µM | SN12C 76.2 µM | UO-31 > 100 µM | RXF 393 39.4 µM | OVCAR-8 > 100 µM | SW-620 31.2 µM | OVCAR-4 79.4 µM | A549 73.8 µM | SK-MEL-5 35 µM | U-251 54.8 µM | HCT-116 47.5 µM | SK-OV-3 > 100 µM | UACC-62 26.1 µM | K562 22.9 µM | DU-145 > 100 µM | NCI-H522 42 µM | SF-295 > 100 µM | OVCAR-3 83.4 µM | KM12 41.2 µM | MDA-MB-435 61.2 µM | UACC-257 78.9 µM | M14 59.7 µM | NCI-H460 > 100 µM | SNB-19 25.8 µM | NCI/ADR-RES 65.6 µM | NCI-H226 22.9 µM | HT-29 28.2 µM | MOLT-4 40.6 µM | MDA-MB-231 > 100 µM | Hs-578T 23.4 µM | Malme-3M 42.8 µM | SK-MEL-2 16.6 µM | MDA-N 50.9 µM | SF-539 > 100 µM | EKVX 49.2 µM | PC-3 35 µM | MCF7 54.6 µM
